{"source": "paper PMC2695807", "about": "“Plant Insecticide L-Canavanine Repels Drosophila via the Insect Orphan GPCR DmX” (PLoS Biology, 2009)", "target": "T1, DmX receptor (DmXR) (Drosophila melanogaster, UniProt Q70GQ8)", "T1 construct": "gene mtt; HA-DmXR WT, transiently expressed in HEK 293 cells", "T1 sequence (Q70GQ8 1-1073)": "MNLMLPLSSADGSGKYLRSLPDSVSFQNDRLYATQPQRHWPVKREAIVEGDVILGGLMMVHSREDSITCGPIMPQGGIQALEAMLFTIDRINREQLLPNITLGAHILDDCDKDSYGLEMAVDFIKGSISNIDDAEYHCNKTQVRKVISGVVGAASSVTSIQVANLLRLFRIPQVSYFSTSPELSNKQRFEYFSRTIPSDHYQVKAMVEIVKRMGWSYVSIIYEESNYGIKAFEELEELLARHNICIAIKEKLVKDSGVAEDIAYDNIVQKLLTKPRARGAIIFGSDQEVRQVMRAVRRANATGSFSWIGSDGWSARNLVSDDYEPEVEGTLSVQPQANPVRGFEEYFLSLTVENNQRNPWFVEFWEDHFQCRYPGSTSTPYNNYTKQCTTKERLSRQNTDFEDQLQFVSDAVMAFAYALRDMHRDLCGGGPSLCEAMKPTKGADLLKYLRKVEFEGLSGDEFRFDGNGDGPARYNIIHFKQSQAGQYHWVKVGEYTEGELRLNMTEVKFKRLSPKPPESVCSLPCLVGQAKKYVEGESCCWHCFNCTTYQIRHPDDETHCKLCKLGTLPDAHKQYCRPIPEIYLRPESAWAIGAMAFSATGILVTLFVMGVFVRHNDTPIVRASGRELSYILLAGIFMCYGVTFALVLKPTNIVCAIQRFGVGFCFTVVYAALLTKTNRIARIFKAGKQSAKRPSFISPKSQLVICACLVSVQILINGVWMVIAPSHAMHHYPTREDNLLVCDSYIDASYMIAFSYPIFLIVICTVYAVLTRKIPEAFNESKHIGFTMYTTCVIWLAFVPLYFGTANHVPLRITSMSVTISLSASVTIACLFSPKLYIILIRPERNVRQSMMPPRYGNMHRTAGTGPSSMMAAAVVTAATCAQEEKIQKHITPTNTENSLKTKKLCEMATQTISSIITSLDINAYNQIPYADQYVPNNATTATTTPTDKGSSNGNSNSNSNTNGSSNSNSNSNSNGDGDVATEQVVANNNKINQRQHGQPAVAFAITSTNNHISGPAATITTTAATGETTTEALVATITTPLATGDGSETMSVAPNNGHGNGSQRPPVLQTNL", "experiment": "IP accumulation in HEK cells coexpressing DmXR and Gqi9; inhibition of activation by […] L-canavanine (antagonist)", "format": "cell-based"}
{"compound": "CN=C(N)NCCC[C@H](N)C(=O)O", "note": "[NMA, N-methyl-L-arginine]", "values": [{"measurement": "IC50", "result": "200 ± 200", "unit": "µM"}]}
